Test results as given in PMC2677733 (International Journal of Biological Sciences, 2009).

Molecular target: T1, OlatOR1/OlatOR2 (Ostrinia latipennis, UniProt C1PHB5)
T1 sequence (C1PHB5 1-424): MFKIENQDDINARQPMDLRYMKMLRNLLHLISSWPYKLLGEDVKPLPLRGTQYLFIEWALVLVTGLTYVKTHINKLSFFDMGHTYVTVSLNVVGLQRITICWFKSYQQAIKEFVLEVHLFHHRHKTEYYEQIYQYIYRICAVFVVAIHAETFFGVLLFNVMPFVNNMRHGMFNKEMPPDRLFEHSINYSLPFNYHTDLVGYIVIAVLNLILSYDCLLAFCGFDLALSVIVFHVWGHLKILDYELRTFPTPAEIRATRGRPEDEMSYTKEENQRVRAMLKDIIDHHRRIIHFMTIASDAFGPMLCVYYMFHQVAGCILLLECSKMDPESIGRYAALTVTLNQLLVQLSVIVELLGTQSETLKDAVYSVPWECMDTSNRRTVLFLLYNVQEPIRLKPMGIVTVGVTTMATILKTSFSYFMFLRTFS
T1 sequence (C1PHA8 1-473 partner): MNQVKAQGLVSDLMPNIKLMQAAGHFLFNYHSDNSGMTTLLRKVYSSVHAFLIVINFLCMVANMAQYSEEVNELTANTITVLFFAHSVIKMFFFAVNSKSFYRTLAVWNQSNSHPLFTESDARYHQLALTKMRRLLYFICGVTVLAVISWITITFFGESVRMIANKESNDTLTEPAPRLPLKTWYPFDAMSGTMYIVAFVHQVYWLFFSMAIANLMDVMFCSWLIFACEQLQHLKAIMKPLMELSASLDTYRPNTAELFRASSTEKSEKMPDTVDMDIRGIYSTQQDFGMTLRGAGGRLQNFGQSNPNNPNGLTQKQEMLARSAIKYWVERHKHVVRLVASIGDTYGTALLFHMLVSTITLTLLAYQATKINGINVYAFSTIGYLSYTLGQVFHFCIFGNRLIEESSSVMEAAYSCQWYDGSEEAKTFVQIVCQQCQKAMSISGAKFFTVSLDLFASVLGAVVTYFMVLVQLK
Assay: two-electrode voltage clamp, Xenopus oocytes
Type: cell-based
Conditions: agonist, inward current; -80 mV; pH 7.6; 10 µM

Row | Structure (SMILES) | two-electrode voltage clamp, Xenopus oocytes
1 | CCCC/C=C\CCCCCCCCCCOC(C)=O [Z11-16:OAc] | OlatOR1/OlatOR2 cells were found to show exactly the same response pattern as OscaOR1/OscaOR2 cells
2 | CC/C=C/CCCCCCCCCCO [E11-14:OH, (E)-11-tetradecenol] | OscaOR1 and OlatOR1, strongly responded to E11-14:OH
